Residues, ends and D or L forms follow the SMILES beside them. *: point of attachment. X27 = O=C(O)[C@H](CC(=O)*)SCc1ccc([N+](=O)[O-])cc1; X65 = O=C(O)[C@H](CC(=O)*)SCc1cccc([N+](=O)[O-])c1; X35 = O=C(O)[C@@H](CC(=O)*)SCc1ccc(C(F)(F)F)cc1; X15 = CC(C)(C)c1ccc(CS[C@H](CC(=O)*)C(=O)O)cc1; X32 = O=C(O)[C@H](CC(=O)*)SCc1ccc(C(F)(F)F)cc1; X17 = O=C(O)[C@@H](CC(=O)*)Sc1cc(Cl)cc(Cl)c1; X74 = O=C(O)[C@@H](CC(=O)*)SCc1ccc(Cl)cc1Cl; X11 = O=C(O)[C@H](CC(=O)*)SCc1cccc2ccccc12; X18 = O=C(O)[C@@H](CC(=O)*)Sc1c(Cl)cccc1Cl; X29 = COc1ccc(S[C@@H](CC(=O)*)C(=O)O)cc1OC; X3 = O=C(O)[C@H](CC(=O)*)Sc1ccc(Cl)c(Cl)c1; X58 = O=C(O)[C@@H](CC(=O)*)Sc1cccc(Cl)c1Cl; X30 = COc1ccc(S[C@H](CC(=O)*)C(=O)O)cc1OC; X31 = O=C(O)[C@H](CC(=O)*)Sc1cccc(Cl)c1Cl; X38 = O=C(O)[C@H](CC(=O)*)Sc1cccc2ccccc12; X59 = O=C(O)[C@@H](CC(=O)*)SCc1ccc(Cl)cc1; X64 = O=C(O)[C@H](CC(=O)*)Sc1c(Cl)cccc1Cl; X10 = Cc1noc(C)c1CCS[C@H](CC(=O)*)C(=O)O; X57 = O=C(O)[C@@H](CC(=O)*)Sc1ccc(Cl)cc1; X47 = O=C(O)[C@@H](CC(=O)*)SCc1ccccc1Cl; X68 = Cc1ccc(S[C@H](CC(=O)*)C(=O)O)cc1C; X34 = O=C(O)[C@@H](CC(=O)*)Sc1ccccc1Cl; X37 = O=C(O)[C@H](CC(=O)*)SCCCc1ccccc1; X60 = O=C(O)[C@@H](CC(=O)*)SCc1ccccc1; X69 = O=C(O)[C@@H](CC(=O)*)Sc1ccccc1; X8 = O=C(O)[C@H](CC(=O)*)Sc1ccccc1; X7 = O=C(O)C(CC(=O)*)SCCc1ccncc1; X42 = O=C(CCSc1ccc2ccccc2c1)*; Bz = O=C(c1ccccc1)*
The molecules below were run against NAD-dependent protein deacylase sirtuin-5, mitochondrial (Homo sapiens, UniProt Q9NXA8) (assay: Inhibition of human recombinant N-terminal Strep2-tagged SIRT5 expressed in Escherichia coli BL21 (DE3) using Abz-GVLK(glutaryl)AY(NO2)GV-NH2 as substrate in presence of NAD+ by fluorescence assay).
Chain of NAD-dependent protein deacylase sirtuin-5, mitochondrial (Q9NXA8 whole entry): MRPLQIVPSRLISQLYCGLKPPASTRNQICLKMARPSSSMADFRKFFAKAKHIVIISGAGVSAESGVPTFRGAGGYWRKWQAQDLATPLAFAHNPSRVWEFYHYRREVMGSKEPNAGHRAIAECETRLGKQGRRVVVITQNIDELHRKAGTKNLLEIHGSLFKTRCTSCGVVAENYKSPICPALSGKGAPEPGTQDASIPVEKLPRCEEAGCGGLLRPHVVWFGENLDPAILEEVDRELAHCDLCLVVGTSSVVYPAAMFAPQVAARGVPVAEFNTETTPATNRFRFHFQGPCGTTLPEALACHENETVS

| Compound | IC50 | Ki |
| --- | --- | --- |
| CC(C)C[C@H](NC(=O)[C@@H](NC(=O)CNC(=O)c1ccccc1)C(C)C)C(=O)N[C@@H](CCCCNC(=O)C[C@@H](Sc1cccc(Cl)c1Cl)C(=O)O)C(=O)N[C@@H](CCC(=O)O)C(=O)N[C@@H](Cc1ccc(O)cc1)C(=O)NCC(=O)N[C@H](C(N)=O)C(C)C (Bz-GVLK(X58)EYGV-NH2) | 3390 nM | – |
| CC(=O)N[C@@H](CC(C)C)C(=O)N[C@@H](CCCCNC(=O)C[C@H](Sc1ccc2ccccc2c1)C(=O)O)C(=O)N[C@@H](C)C(N)=O | 350 nM | – |
| COc1ccc(S[C@@H](CC(=O)NCCCC[C@H](NC(=O)[C@H](CC(C)C)NC(=O)[C@@H](NC(=O)CNC(=O)c2ccccc2)C(C)C)C(=O)N[C@@H](CCC(=O)O)C(=O)N[C@@H](Cc2ccc(O)cc2)C(=O)NCC(=O)N[C@H](C(N)=O)C(C)C)C(=O)O)cc1OC (Bz-GVLK(X29)EYGV-NH2) | 326 nM | – |
| CC(C)C[C@H](NC(=O)[C@@H](NC(=O)CNC(=O)c1ccccc1)C(C)C)C(=O)N[C@@H](CCCCNC(=O)C[C@@H](Sc1c(Cl)cccc1Cl)C(=O)O)C(=O)N[C@@H](CCC(=O)O)C(=O)N[C@@H](Cc1ccc(O)cc1)C(=O)NCC(=O)N[C@H](C(N)=O)C(C)C (Bz-GVLK(X18)EYGV-NH2) | 12500 nM | – |
| CC(C)C[C@H](NC(=O)[C@@H](NC(=O)CNC(=O)c1ccccc1)C(C)C)C(=O)N[C@@H](CCCCNC(=O)C[C@@H](Sc1cc(Cl)cc(Cl)c1)C(=O)O)C(=O)N[C@@H](CCC(=O)O)C(=O)N[C@@H](Cc1ccc(O)cc1)C(=O)NCC(=O)N[C@H](C(N)=O)C(C)C (Bz-GVLK(X17)EYGV-NH2) | 647 nM | – |
| CC(C)C[C@H](NC(=O)[C@@H](NC(=O)CNC(=O)c1ccccc1)C(C)C)C(=O)N[C@@H](CCCCNC(=O)C[C@H](Sc1cccc2ccccc12)C(=O)O)C(=O)N[C@@H](CCC(=O)O)C(=O)N[C@@H](Cc1ccc(O)cc1)C(=O)NCC(=O)N[C@H](C(N)=O)C(C)C (Bz-GVLK(X38)EYGV-NH2) | 95 nM | – |
| Cc1noc(C)c1CCS[C@H](CC(=O)NCCCC[C@H](NC(=O)[C@H](CC(C)C)NC(=O)[C@@H](NC(=O)CNC(=O)c1ccccc1)C(C)C)C(=O)N[C@@H](CCC(=O)O)C(=O)N[C@@H](Cc1ccc(O)cc1)C(=O)NCC(=O)N[C@H](C(N)=O)C(C)C)C(=O)O (Bz-GVLK(X10)EYGV-NH2) | 18500 nM | – |
| CC(C)C[C@H](NC(=O)[C@@H](NC(=O)CNC(=O)c1ccccc1)C(C)C)C(=O)N[C@@H](CCCCNC(=O)C[C@H](Sc1cccc(Cl)c1Cl)C(=O)O)C(=O)N[C@@H](CCC(=O)O)C(=O)N[C@@H](Cc1ccc(O)cc1)C(=O)NCC(=O)N[C@H](C(N)=O)C(C)C (Bz-GVLK(X31)EYGV-NH2) | 715 nM | – |
| CC(C)C[C@H](NC(=O)[C@@H](NC(=O)CNC(=O)c1ccccc1)C(C)C)C(=O)N[C@@H](CCCCNC(=O)C[C@H](SCc1cccc2ccccc12)C(=O)O)C(=O)N[C@@H](CCC(=O)O)C(=O)N[C@@H](Cc1ccc(O)cc1)C(=O)NCC(=O)N[C@H](C(N)=O)C(C)C (Bz-GVLK(X11)EYGV-NH2) | 15.4 nM | 7 nM |
| Cc1ccc(S[C@H](CC(=O)NCCCC[C@H](NC(=O)[C@H](CC(C)C)NC(=O)[C@@H](NC(=O)CNC(=O)c2ccccc2)C(C)C)C(=O)N[C@@H](CCC(=O)O)C(=O)N[C@@H](Cc2ccc(O)cc2)C(=O)NCC(=O)N[C@H](C(N)=O)C(C)C)C(=O)O)cc1C (Bz-GVLK(X68)EYGV-NH2) | 1260 nM | – |
| CC(C)C[C@H](NC(=O)[C@@H](NC(=O)CNC(=O)c1ccccc1)C(C)C)C(=O)N[C@@H](CCCCNC(=O)C[C@@H](Sc1ccccc1)C(=O)O)C(=O)N[C@@H](CCC(=O)O)C(=O)N[C@@H](Cc1ccc(O)cc1)C(=O)NCC(=O)N[C@H](C(N)=O)C(C)C (Bz-GVLK(X69)EYGV-NH2) | 1800 nM | – |
| CC(C)C[C@H](NC(=O)[C@@H](NC(=O)CNC(=O)c1ccccc1)C(C)C)C(=O)N[C@@H](CCCCNC(=O)C[C@H](SCc1ccc(C(F)(F)F)cc1)C(=O)O)C(=O)N[C@@H](CCC(=O)O)C(=O)N[C@@H](Cc1ccc(O)cc1)C(=O)NCC(=O)N[C@H](C(N)=O)C(C)C (Bz-GVLK(X32)EYGV-NH2) | 803 nM | – |
| CC(C)C[C@H](NC(=O)[C@@H](NC(=O)CNC(=O)c1ccccc1)C(C)C)C(=O)N[C@@H](CCCCNC(=O)C[C@@H](SCc1ccc(C(F)(F)F)cc1)C(=O)O)C(=O)N[C@@H](CCC(=O)O)C(=O)N[C@@H](Cc1ccc(O)cc1)C(=O)NCC(=O)N[C@H](C(N)=O)C(C)C (Bz-GVLK(X35)EYGV-NH2) | 2200 nM | – |
| CC(C)C[C@H](NC(=O)[C@@H](NC(=O)CNC(=O)c1ccccc1)C(C)C)C(=O)N[C@@H](CCCCNC(=O)C[C@@H](SCc1ccccc1)C(=O)O)C(=O)N[C@@H](CCC(=O)O)C(=O)N[C@@H](Cc1ccc(O)cc1)C(=O)NCC(=O)N[C@H](C(N)=O)C(C)C (Bz-GVLK(X60)EYGV-NH2) | 644 nM | – |
| CC(C)C[C@H](NC(=O)[C@@H](NC(=O)CNC(=O)c1ccccc1)C(C)C)C(=O)N[C@@H](CCCCNC(=O)C[C@H](SCc1cccc([N+](=O)[O-])c1)C(=O)O)C(=O)N[C@@H](CCC(=O)O)C(=O)N[C@@H](Cc1ccc(O)cc1)C(=O)NCC(=O)N[C@H](C(N)=O)C(C)C (Bz-GVLK(X65)EYGV-NH2) | 2710 nM | – |
| CC(C)C[C@H](NC(=O)[C@@H](NC(=O)CNC(=O)c1ccccc1)C(C)C)C(=O)N[C@@H](CCCCNC(=O)C[C@H](Sc1ccccc1)C(=O)O)C(=O)N[C@@H](CCC(=O)O)C(=O)N[C@@H](Cc1ccc(O)cc1)C(=O)NCC(=O)N[C@H](C(N)=O)C(C)C (Bz-GVLK(X8)EYGV-NH2) | 274 nM | 135 nM |
| CC(C)C[C@H](NC(=O)[C@@H](NC(=O)CNC(=O)c1ccccc1)C(C)C)C(=O)N[C@@H](CCCCNC(=O)C[C@@H](SCc1ccc(Cl)cc1Cl)C(=O)O)C(=O)N[C@@H](CCC(=O)O)C(=O)N[C@@H](Cc1ccc(O)cc1)C(=O)NCC(=O)N[C@H](C(N)=O)C(C)C (Bz-GVLK(X74)EYGV-NH2) | 432 nM | – |
| CC(C)C[C@H](NC(=O)[C@@H](NC(=O)CNC(=O)c1ccccc1)C(C)C)C(=O)N[C@@H](CCCCNC(=O)C[C@H](Sc1c(Cl)cccc1Cl)C(=O)O)C(=O)N[C@@H](CCC(=O)O)C(=O)N[C@@H](Cc1ccc(O)cc1)C(=O)NCC(=O)N[C@H](C(N)=O)C(C)C (Bz-GVLK(X64)EYGV-NH2) | 577 nM | – |
| CC(C)C[C@H](NC(=O)[C@@H](NC(=O)CNC(=O)c1ccccc1)C(C)C)C(=O)N[C@@H](CCCCNC(=O)C[C@H](SCCCc1ccccc1)C(=O)O)C(=O)N[C@@H](CCC(=O)O)C(=O)N[C@@H](Cc1ccc(O)cc1)C(=O)NCC(=O)N[C@H](C(N)=O)C(C)C (Bz-GVLK(X37)EYGV-NH2) | 1130 nM | – |
| CC(C)C[C@H](NC(=O)[C@@H](NC(=O)CNC(=O)c1ccccc1)C(C)C)C(=O)N[C@@H](CCCCNC(=O)CCSc1ccc2ccccc2c1)C(=O)N[C@@H](CCC(=O)O)C(=O)N[C@@H](Cc1ccc(O)cc1)C(=O)NCC(=O)N[C@H](C(N)=O)C(C)C (Bz-GVLK(X42)EYGV-NH2) | > 40000 nM | – |
| CC(C)C[C@H](NC(=O)[C@@H](NC(=O)CNC(=O)c1ccccc1)C(C)C)C(=O)N[C@@H](CCCCNC(=O)C[C@H](Sc1ccc(Cl)c(Cl)c1)C(=O)O)C(=O)N[C@@H](CCC(=O)O)C(=O)N[C@@H](Cc1ccc(O)cc1)C(=O)NCC(=O)N[C@H](C(N)=O)C(C)C (Bz-GVLK(X3)EYGV-NH2) | 45.9 nM | 23 nM |
| CC(C)C[C@H](NC(=O)[C@@H](NC(=O)CNC(=O)c1ccccc1)C(C)C)C(=O)N[C@@H](CCCCNC(=O)C[C@@H](SCc1ccc(Cl)cc1)C(=O)O)C(=O)N[C@@H](CCC(=O)O)C(=O)N[C@@H](Cc1ccc(O)cc1)C(=O)NCC(=O)N[C@H](C(N)=O)C(C)C (Bz-GVLK(X59)EYGV-NH2) | 1020 nM | – |
| CC(C)C[C@H](NC(=O)[C@@H](NC(=O)CNC(=O)c1ccccc1)C(C)C)C(=O)N[C@@H](CCCCNC(=O)C[C@@H](SCc1ccc(C(C)(C)C)cc1)C(=O)O)C(=O)N[C@@H](CCC(=O)O)C(=O)N[C@@H](Cc1ccc(O)cc1)C(=O)NCC(=O)N[C@H](C(N)=O)C(C)C (Bz-GVLK(X15)EYGV-NH2) | 1240 nM | – |
| CC(C)C[C@H](NC(=O)[C@@H](NC(=O)CNC(=O)c1ccccc1)C(C)C)C(=O)N[C@@H](CCCCNC(=O)CC(SCCc1ccncc1)C(=O)O)C(=O)N[C@@H](CCC(=O)O)C(=O)N[C@@H](Cc1ccc(O)cc1)C(=O)NCC(=O)N[C@H](C(N)=O)C(C)C (some centres not stated) (Bz-GVLK(X7)EYGV-NH2) | 13200 nM | – |
| CC(C)C[C@H](NC(=O)[C@@H](NC(=O)CNC(=O)c1ccccc1)C(C)C)C(=O)N[C@@H](CCCCNC(=O)C[C@@H](Sc1ccc(Cl)cc1)C(=O)O)C(=O)N[C@@H](CCC(=O)O)C(=O)N[C@@H](Cc1ccc(O)cc1)C(=O)NCC(=O)N[C@H](C(N)=O)C(C)C (Bz-GVLK(X57)EYGV-NH2) | 1610 nM | – |
| CC(C)C[C@H](NC(=O)[C@@H](NC(=O)CNC(=O)c1ccccc1)C(C)C)C(=O)N[C@@H](CCCCNC(=O)C[C@@H](SCc1ccccc1Cl)C(=O)O)C(=O)N[C@@H](CCC(=O)O)C(=O)N[C@@H](Cc1ccc(O)cc1)C(=O)NCC(=O)N[C@H](C(N)=O)C(C)C (Bz-GVLK(X47)EYGV-NH2) | 352 nM | – |
| CC(C)C[C@H](NC(=O)[C@@H](NC(=O)CNC(=O)c1ccccc1)C(C)C)C(=O)N[C@@H](CCCCNC(=O)C[C@@H](Sc1ccccc1Cl)C(=O)O)C(=O)N[C@@H](CCC(=O)O)C(=O)N[C@@H](Cc1ccc(O)cc1)C(=O)NCC(=O)N[C@H](C(N)=O)C(C)C (Bz-GVLK(X34)EYGV-NH2) | 3100 nM | – |
| CC(C)C[C@H](NC(=O)[C@@H](NC(=O)CNC(=O)c1ccccc1)C(C)C)C(=O)N[C@@H](CCCCNC(=O)C[C@H](SCc1ccc([N+](=O)[O-])cc1)C(=O)O)C(=O)N[C@@H](CCC(=O)O)C(=O)N[C@@H](Cc1ccc(O)cc1)C(=O)NCC(=O)N[C@H](C(N)=O)C(C)C (Bz-GVLK(X27)EYGV-NH2) | 3730 nM | – |
| COc1ccc(S[C@H](CC(=O)NCCCC[C@H](NC(=O)[C@H](CC(C)C)NC(=O)[C@@H](NC(=O)CNC(=O)c2ccccc2)C(C)C)C(=O)N[C@@H](CCC(=O)O)C(=O)N[C@@H](Cc2ccc(O)cc2)C(=O)NCC(=O)N[C@H](C(N)=O)C(C)C)C(=O)O)cc1OC (Bz-GVLK(X30)EYGV-NH2) | 9080 nM | – |
